Measurements reported in US20260007681A1, “INDOLE DERIVATIVES AS ESTROGEN RECEPTOR DEGRADERS” (REGENTS OF THE UNIVERSITY OF MICHIGAN, priority 2022, published 2026).

Experiments:
[1] = target: ER (Homo sapiens (Human), UniProt P03372); test: In-cell western blot analysis of relative ER percentage (Compounds B1-B278); format: cell-based; conditions: ER degradation, 16 hours, read-out: ICW DC50
Method in brief: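 Cells seeded at 40,000 or 10,000 cells/well and treated with compound (final 0.5% DMSO) for 16 h, then formaldehyde-fixed, Triton-permeabilized and co-stained for ER and GAPDH with 680/800 secondaries; LI-COR plate read. ER level expressed relative to untreated/DMSO-treated wells set at 100%.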

[2] = Cell growth assay (WST-8) (Compounds B1-B278); format: cell-based; conditions: 96 h; T47D cell line; WST-8, 4 days; read-out: Cell Growth Inhibition in T47D cell line IC50
Method in brief: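 Cells seeded at 1500/well overnight, treated one day later with compound doses for 4 days, then 10% WST-8 added for 2.5 h at 37° C in CO2. Absorbance at 450 nm, expressed relative to vehicle control over three independent repeats.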

ER, sequence (P03372 whole entry): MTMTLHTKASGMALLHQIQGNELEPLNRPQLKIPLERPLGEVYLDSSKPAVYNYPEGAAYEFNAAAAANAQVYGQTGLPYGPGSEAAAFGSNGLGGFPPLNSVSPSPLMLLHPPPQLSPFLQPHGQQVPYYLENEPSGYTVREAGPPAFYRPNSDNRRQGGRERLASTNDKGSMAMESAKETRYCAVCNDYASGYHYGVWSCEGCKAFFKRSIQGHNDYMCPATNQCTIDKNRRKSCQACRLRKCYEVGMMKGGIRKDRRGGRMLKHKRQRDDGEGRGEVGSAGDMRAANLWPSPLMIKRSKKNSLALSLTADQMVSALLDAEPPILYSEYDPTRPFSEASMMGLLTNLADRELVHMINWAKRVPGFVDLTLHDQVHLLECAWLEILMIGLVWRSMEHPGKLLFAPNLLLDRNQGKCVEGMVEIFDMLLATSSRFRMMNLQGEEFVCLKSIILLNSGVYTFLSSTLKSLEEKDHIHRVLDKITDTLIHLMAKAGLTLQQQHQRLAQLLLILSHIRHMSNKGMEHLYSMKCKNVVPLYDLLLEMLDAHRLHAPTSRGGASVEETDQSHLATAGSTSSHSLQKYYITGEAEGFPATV

For `C[C@@H]1Cc2c([nH]c3ccccc23)[C@@H](c2cnc(N3CCC(CCN4CCN5c6ccc7c(c6OC[C@H]5C4)CN(C4CCC(=O)NC4=O)C7=O)CC3)nc2)N1CC(F)F` (stereo partly drawn) [Compound B160, 3-((R)-7-(2-(1-(5-((1R,3R)-2-(2,2-difluoroethyl)-3-methyl-2,3,4,9-tetrahydro-1H-pyrido[3,4-b]indol-1-yl)pyrimidin-2-yl)piperidin-4-yl)ethyl)-1-oxo-1,3,5,5a,6,7,8,9-octahydro-2H-pyrazino[1′,2′:4,5][1,4]oxazino[2,3-e]isoindol-2-yl)piperidine-2,6-dione], the DC50 [1] was over 100 nM and the IC50 [2] was 1 to 10 nM.

With `C[C@@H]1Cc2c([nH]c3ccccc23)[C@@H](c2cnc(N3CCC4(CCC(CN5CCN6c7ccc8c(c7OC[C@H]6C5)CN(C5CCC(=O)NC5=O)C8=O)CC4)CC3)nc2)N1CC(F)F` (stereo partly drawn) [Compound B161, 3-((R)-7-((3-(5-((1R,3R)-2-(2,2-difluoroethyl)-3-methyl-2,3,4,9-tetrahydro-1H-pyrido[3,4-b]indol-1-yl)pyrimidin-2-yl)-3-azaspiro[5.5]undecan-9-yl)methyl)-1-oxo-1,3,5,5a,6,7,8,9-octahydro-2H-pyrazino[1′,2′:4,5][1,4]oxazino[2,3-e]isoindol-2-yl)piperidine-2,6-dione] the DC50 [1] was over 100 nM and the IC50 [2] was over 10 nM.

With `C[C@@H]1Cc2c([nH]c3ccccc23)[C@@H](c2cnc(N3CCC4(CCC(CN5CCN6c7ccc8c(c7OC[C@H]6C5)CN(C5CCC(=O)NC5=O)C8=O)CC4)CC3)nc2)N1CC(C)(C)F` (stereo partly drawn) [Compound B162, 3-((R)-7-((3-(5-((1R,3R)-2-(2-fluoro-2-methylpropyl)-3-methyl-2,3,4,9-tetrahydro-1H-pyrido[3,4-b]indol-1-yl)pyrimidin-2-yl)-3-azaspiro[5.5]undecan-9-yl)methyl)-1-oxo-1,3,5,5a,6,7,8,9-octahydro-2H-pyrazino[1′,2′:4,5][1,4]oxazino[2,3-e]isoindol-2-yl)piperidine-2,6-dione] the DC50 [1] was over 100 nM and the IC50 [2] was over 10 nM.

In the case of `C[C@@H]1Cc2c([nH]c3ccccc23)[C@@H](c2cnc(N3CCC4(CCC(N5CCN6c7ccc8c(c7OC[C@H]6C5)CN(C5CCC(=O)NC5=O)C8=O)CC4)CC3)nc2)N1CC(F)F` (stereo partly drawn) [Compound B163, 3-((R)-7-(3-(5-((1R,3R)-2-(2,2-difluoroethyl)-3-methyl-2,3,4,9-tetrahydro-1H-pyrido[3,4-b]indol-1-yl)pyrimidin-2-yl)-3-azaspiro[5.5]undecan-9-yl)-1-oxo-1,3,5,5a,6,7,8,9-octahydro-2H-pyrazino[1′,2′:4,5][1,4]oxazino[2,3-e]isoindol-2-yl)piperidine-2,6-dione], the DC50 [1] is reported as over 100 nM and the IC50 [2] is reported as over 10 nM.

For `C[C@@H]1Cc2c([nH]c3ccccc23)[C@@H](c2cnc(N3CCC4(CCC(N5CCN6c7ccc8c(c7OC[C@H]6C5)CN(C5CCC(=O)NC5=O)C8=O)CC4)CC3)nc2)N1CC(C)(C)F` (stereo partly drawn) [Compound B164, 3-((R)-7-(3-(5-((1R,3R)-2-(2-fluoro-2-methylpropyl)-3-methyl-2,3,4,9-tetrahydro-1H-pyrido[3,4-b]indol-1-yl)pyrimidin-2-yl)-3-azaspiro[5.5]undecan-9-yl)-1-oxo-1,3,5,5a,6,7,8,9-octahydro-2H-pyrazino[1′,2′:4,5][1,4]oxazino[2,3-e]isoindol-2-yl)piperidine-2,6-dione], the DC50 [1] was over 100 nM and the IC50 [2] was 1 to 10 nM.

With `C[C@@H]1Cc2c([nH]c3ccccc23)[C@@H](c2cnc(N3CCC4(CC3)CC(N3CCN5c6ccc7c(c6OC[C@H]5C3)CN(C3CCC(=O)NC3=O)C7=O)CO4)nc2)N1CC(C)(C)F` (stereo partly drawn) [Compound B165, 3-((5aR)-7-(8-(5-((1R,3R)-2-(2-fluoro-2-methylpropyl)-3-methyl-2,3,4,9-tetrahydro-1H-pyrido[3,4-b]indol-1-yl)pyrimidin-2-yl)-1-oxa-8-azaspiro[4.5]decan-3-yl)-1-oxo-1,3,5,5a,6,7,8,9-octahydro-2H-pyrazino[1′,2′:4,5][1,4]oxazino[2,3-e]isoindol-2-yl)piperidine-2,6-dione] the DC50 [1] was 10 to 100 nM and the IC50 [2] was 1 to 10 nM.

Work on `C[C@@H]1Cc2c([nH]c3ccccc23)[C@@H](c2cnc(N3CCC4(CC3)CC(N3CCN5c6ccc7c(c6OC[C@H]5C3)CN(C3CCC(=O)NC3=O)C7=O)CO4)nc2)N1CC(F)F` (stereo partly drawn) [Compound B166, 3-((5aR)-7-(8-(5-((1R,3R)-2-(2,2-difluoroethyl)-3-methyl-2,3,4,9-tetrahydro-1H-pyrido[3,4-b]indol-1-yl)pyrimidin-2-yl)-1-oxa-8-azaspiro[4.5]dccan-3-yl)-1-oxo-1,3,5,5a,6,7,8,9-octahydro-2H-pyrazino[1′,2′:4,5][1,4]oxazino[2,3-e]isoindol-2-yl)piperidine-2,6-dione] yielded a DC50 [1] of 10 to 100 nM and an IC50 [2] of 1 to 10 nM.

`C[C@@H]1Cc2c([nH]c3ccccc23)[C@@H](c2cnc(N3CC4(CCC(CN5Cc6cc7c(cc6C5)C(=O)N(C5CCC(=O)NC5=O)C7=O)CC4)C3)nc2)N1CC(F)(F)CO` (stereo partly drawn) [Compound B167, 6-((2-(5-((1R,3R)-2-(2,2-difluoro-3-hydroxypropyl)-3-methyl-2,3,4,9-tetrahydro-1H-pyrido[3,4-b]indol-1-yl)pyrimidin-2-yl)-2-azaspiro[3.5]nonan-7-yl)methyl)-2-(2,6-dioxopiperidin-3-yl)-6,7-dihydropyrrolo[3,4-f]isoindole-1,3(2H,5H)-dione] gave a DC50 [1] of over 100 nM and an IC50 [2] of over 10 nM.

For `C[C@@H]1Cc2c([nH]c3ccccc23)[C@@H](c2cnc(N3CCC4(CC3)CC(CN3CCN5c6ccc7c(c6OC[C@H]5C3)CN(C3CCC(=O)NC3=O)C7=O)CO4)nc2)N1CC(C)(C)F` (stereo partly drawn) [Compound B168, 3-((5aR)-7-((8-(5-((1R,3R)-2-(2-fluoro-2-methylpropyl)-3-methyl-2,3,4,9-tetrahydro-1H-pyrido[3,4-b]indol-1-yl)pyrimidin-2-yl)-1-oxa-8-azaspiro[4.5]decan-3-yl)methyl)-1-oxo-1,3,5,5a,6,7,8,9-octahydro-2H-pyrazino[1′,2′:4,5][1,4]oxazino[2,3-e]isoindol-2-yl)piperidine-2,6-dione], the DC50 [1] was under 10 nM and the IC50 [2] was 1 to 10 nM.

With `C[C@@H]1Cc2c([nH]c3ccccc23)[C@@H](c2ccc(N3CCC4(CC3)CC(CN3CCN5c6ccc7c(c6OC[C@H]5C3)CN(C3CCC(=O)NC3=O)C7=O)C4)nc2)N1CC(F)F` (stereo partly drawn) [Compound B169, 3-((R)-7-((7-(5-((1R,3R)-2-(2,2-difluoroethyl)-3-methyl-2,3,4,9-tetrahydro-1H-pyrido[3,4-b]indol-1-yl)pyridin-2-yl)-7-azaspiro[3.5]nonan-2-yl)methyl)-1-oxo-1,3,5,5a,6,7,8,9-octahydro-2H-pyrazino[1′,2′:4,5][1,4]oxazino[2,3-e]isoindol-2-yl)piperidine-2,6-dione] the DC50 [1] was over 100 nM and the IC50 [2] was 1 to 10 nM.

In the case of `COc1cc(N2CCC3(CCN(C(=O)CN4Cc5cc6c(cc5C4)C(=O)N(C4CCC(=O)NC4=O)C6=O)CC3)CC2)ccc1[C@@H]1c2[nH]c3ccccc3c2C[C@@H](C)N1CC(C)(C)F` (stereo partly drawn) [Compound B170, 2-(2,6-dioxopiperidin-3-yl)-6-(2-(9-(4-((1R,3R)-2-(2-fluoro-2-methylpropyl)-3-methyl-2,3,4,9-tetrahydro-1H-pyrido[3,4-b]indol-1-yl)-3-methoxyphenyl)-3,9-diazaspiro[5.5]undecan-3-yl)-2-oxoethyl)-6,7-dihydropyrrolo[3,4-f]isoindole-1,3(2H,5H)-dione], the DC50 [1] is reported as over 100 nM and the IC50 [2] is reported as 1 to 10 nM.

Compound `C[C@@H]1Cc2c([nH]c3ccccc23)[C@@H](c2cnc(N3CCC4(CC3)CC(CN3CCN5c6cc7c(cc6OC[C@@H]5C3)C(=O)N(C3CCC(=O)NC3=O)C7)CO4)nc2)N1CC(F)(F)CO` (stereo partly drawn) [Compound B171, 3-((4aS)-3-((8-(5-((1R,3R)-2-(2,2-difluoro-3-hydroxypropyl)-3-methyl-2,3,4,9-tetrahydro-1H-pyrido[3,4-b]indol-1-yl)pyrimidin-2-yl)-1-oxa-8-azaspiro[4.5]dccan-3-yl)methyl)-8-oxo-1,2,3,4,4a,5,8,10-octahydro-9H-pyrazino[1′,2′:4,5][1,4]oxazino[2,3-f]isoindol-9-yl)piperidine-2,6-dione] has a DC50 [1] of under 10 nM and an IC50 [2] of over 10 nM.

Work on `C[C@@H]1Cc2c([nH]c3ccccc23)[C@@H](c2cnc(N3CCC4(CC3)CC(CN3CCN5c6ccc7c(c6OC[C@H]5C3)CN(C3CCC(=O)NC3=O)C7=O)CO4)nc2)N1CC(F)(F)CO` (stereo partly drawn) [Compound B172, 3-((5aR)-7-((8-(5-((1R,3R)-2-(2,2-difluoro-3-hydroxypropyl)-3-methyl-2,3,4,9-tetrahydro-1H-pyrido[3,4-b]indol-1-yl)pyrimidin-2-yl)-1-oxa-8-azaspiro[4.5]decan-3-yl)methyl)-1-oxo-1,3,5,5a,6,7,8,9-octahydro-2H-pyrazino[1′,2′:4,5][1,4]oxazino[2,3-e]isoindol-2-yl)piperidine-2,6-dione] yielded a DC50 [1] of over 100 nM and an IC50 [2] of under 1 nM.

In the case of `C[C@@H]1Cc2c([nH]c3ccccc23)[C@@H](c2c(F)cc(N3CCC(CN4CCN5c6c(ccc7c6CN(C6CCC(=O)NC6=O)C7=O)OC[C@@H]5C4)CC3)cc2F)N1CC(F)F` (stereo partly drawn) [Compound B173, 3-((S)-9-((1-(4-((1R,3R)-2-(2,2-difluoroethyl)-3-methyl-2,3,4,9-tetrahydro-1H-pyrido[3,4-b]indol-1-yl)-3,5-difluorophenyl)piperidin-4-yl)methyl)-3-oxo-1,3,7,7a,8,9,10,11-octahydro-2H-pyrazino[1′,2′:4,5][1,4]oxazino[3,2-e]isoindol-2-yl)piperidine-2,6-dione], the DC50 [1] is reported as over 100 nM and the IC50 [2] is reported as under 1 nM.
